From PMC12040169 (PLOS Biology, 2025)

experiment: in vitro; conditions: human, hela cells, % viability

| SMILES | viability at 28.5 h, 10 µM [%] |
| --- | --- |
| COCCNC(=O)c1nn(-c2cccc(C(C)C)c2)cc1O [CBK304884] | 90.8 |
| COc1ccccc1CC(=O)N1C2CCC1CC(O)(c1ccco1)C2 (centres unmarked) [CBK284106] | 88.8 |
| COc1ccccc1N1CCn2c1nc1c2c(=O)n(CCN2CCOCC2)c(=O)n1C [CBK269265] | 93.4 |
| O=C1CN(S(=O)(=O)c2ccc(F)cc2Cl)CCN1 [CBK051081] | 109 |
| Cc1ccccc1C(c1cnccn1)N(C)C(=O)C1CCN(C(=O)c2ccccc2)CC1 (centres unmarked) [CBK060208] | 94.4 |
| O=C(O)c1cnc(NCC2CCCCCC2)[nH]c1=O [CBK023792] | 88.8 |
| O=C(NCc1ccccc1)c1ccc2[nH]nnc2c1 [CBK200368] | 86.9 |
| CC(=O)c1ccc(OC(C)C)c(CSc2nc(O)cc(O)n2)c1 [CBK263446] | 91.5 |
| COc1cc(OCc2ccccc2)ccc1CN1CCN(Cc2ccc3c(c2)OCO3)CC1 [CBK074768] | 97.9 |
| Cc1cccc(OCCN2C(=O)CC(Cc3cnn(C)c3)C2=O)c1 (centres unmarked) [CBK304081] | 99.7 |
| CN1CCN(NC(=O)COc2ccc(Br)cc2Cl)CC1 [CBK268174] | 92.6 |
| COc1cccc(CS(=O)(=O)c2c(Br)sc3ccnc(N4CCNCC4)c23)c1 [CBK038956C] | 95.1 |
| OC(CNCc1cccs1)c1ccccc1 (centres unmarked) [CBK057092] | 90.8 |
| Cn1cc(C(=O)N2CCc3ccccc32)c2ccccc21 [CBK200407] | 80.6 |
| CN(C)c1cccc(C(=O)Nc2ccccc2N2CCOCC2)c1 [CBK295184] | 76.2 |
| O=C(O)C1CCCCN1S(=O)(=O)c1ccc(Br)cc1 (centres unmarked) [CBK101789] | 88.6 |
| Cc1cc2ccccc2n2c(=O)n(CC(=O)N3CCCC3)nc12 [CBK283880] | 101 |
| c1coc(CNc2ncc(-c3ccc(N4CCOCC4)cc3)n3ccnc23)c1 [CBK091220] | 102 |

| SMILES | viability at 28.5 h, 10 µM [%] |
| --- | --- |
| CCOc1ccccc1C1C=C(C(=O)O)Nc2c(C(=O)Nc3ccccc3)cnn21 (centres unmarked) [CBK287253] | 93.7 |
| COc1ccc(S(=O)(=O)N2CCC(C(=O)N3CCN(Cc4ccc5c(c4)OCO5)CC3)CC2)cc1Cl [CBK267614] | 86 |
| CC(C)[C@H](CO)n1c(=O)[nH]c2ncc(-c3cccc4ccccc34)nc21 [CBK064985] | 104 |
| O=C(O)CCCC(=O)N1CCN2C(=O)c3cc(Br)ccc3NC(=O)[C@@H]2C1 [CBK289581] | 100 |
| Cc1ccccc1-c1nnc(SC(C)C)n1CCNCCO [CBK200084T] | 86.9 |
| O=C(Nc1ccc(Br)cc1C(=O)O)c1ccc2c(c1)C(=O)N(Cc1cccnc1)C2=O [CBK266776] | 96.7 |
| CN(C)c1ccc(-c2[nH][nH]c(=O)c2CCCN)cc1 [CBK288406] | 105 |
| O=C1/C(=C/NCc2cccnc2)C(c2ccccc2)=NN1c1ccc([N+](=O)[O-])cc1 [CBK262911] | 97.6 |
| O=C(c1cc(-c2ccncc2)nc2ccc(Cl)cc12)N1CCN(Cc2ccc3c(c2)OCO3)CC1 [CBK267765] | 85.4 |
| CCCn1c(CN2CCOCC2)nc2c1c(=O)n(C)c(=O)n2C [CBK305911] | 103 |
| CC1CN(Cc2nc3c(c(=O)n(C)c(=O)n3C)n2CCN2CCOCC2)CC(C)O1 (centres unmarked) [CBK269340] | 93.3 |
| O=S(=O)(Nc1ccc(-c2nnn[nH]2)cc1)c1cc(Cl)c(Cl)s1 [CBK154745] | 116 |
| Cc1cc(C(=O)N2CCn3cc(C(F)(F)F)nc3C2)on1 [CBK282430] | 101 |
| COC(=O)CC(C)(C)/C(C)=N/NS(=O)(=O)c1ccc(C)cc1 [CBK263602] | 86.7 |
| Cc1ccc2oc(-c3cccc(NC(=O)c4ccc(-c5ccc([N+](=O)[O-])cc5)o4)c3C)nc2c1 [CBK263437] | 103 |
| COc1cc(/C=N/Nc2nc(Nc3ccccc3)nc(Nc3ccccc3)n2)ccc1O [CBK262584] | 84.9 |
| Cc1cc(Cc2cnc(NC(=O)C3CCS(=O)(=O)C3)s2)ccc1Br (centres unmarked) [CBK298281] | 90 |
